Laboratory results: publication PMC10487843, “Evaluation of Anticancer and Anti-Inflammatory Activities of Some Synthetic Rearranged Abietanes” (International Journal of Molecular Sciences, 2023)
Values after ≈ are worked out from the molar mass of the structure shown. Read-outs that look alike come from different tables or passages of the source.

Assays:
[1] = tested on: human colon adenocarcinoma (HT29); assay: MTT cell viability assay, HT29; type: cell-based; conditions: for IC80: 80% growth inhibition
Source text: (§1) In this study, we employed the MTT (3-(4,5-dimethyl thiazol-2-yl)-2,5-diphenyltetrazolium bromide) colorimetric assay to evaluate the cytotoxic activity of selected abietanes (compounds 5, 7, 13, 17, and 19) against three tumor cell lines: human colon adenocarcinoma (HT29), human hepatocarcinoma (HepG2), and murine melanoma (B16–F10). The MTT assay relied on the conversion of MTT to formazan by viable cells, with the formazan concentration proportional to the number of viable cells. The concentrations required for 50 and 80% growth inhibition (IC50 and IC80) were determined for each compound.
The human colorectal adenocarcinoma cell line HT29 (ECACC no. 9172201; ATCC no. HTB-38), the human hepatocarcinoma cell line HepG2 (ECACC no. 85011430), the mouse melanoma cells B16–F10 (ATCC no. CRL-6475), and the murine monocyte/macrophage like RAW 264.7 cell line (ATCC no, TIB-71) were obtained from the cell bank of the University of Granada, Spain. The tumor cell lines were cultured in DMEM (Dulbecco’s modified Eagle’s medium) supplemented with 2 mM glutamine, 10% heat-inactivated FCS (fetal calf serum), and 50 μg/mL of gentamicin (for all cancer cell lines). The RAW 264.7 cell line was cultured in RPMI1640 medium, supplemented with 2 mM glutamine, 10% heat-inactivated FCS, and 50 μg/mL of gentamicin. All cell lines were incubated at 37 °C, in an atmosphere of 5% CO2 and 95% humidity. The culture media were changed every 48 h, and the confluent cultures were separated with a trypsin solution (0.25% EDTA). In all experiments, monolayer cells were grown to 80–90% confluence in sterile cell culture flasks.
The effects of the compounds on the cell viability were established using the MTT method (Sigma, St. Louis, MO, USA). The cytotoxicity of the compounds was assessed by measuring the absorbance of MTT dye staining of metabolically competent cells. The cells were cultivated in 96-well plates at 6.0 × 10^3 cells/mL for the HT29 and RAW 264.7 cell lines, at 5.0 × 10^3 cells/mL for B16–F10 cells, and 15.0 × 10^3 cells/mL for the HepG2 cell line, with a final volume of 200 μL per well being incubated with the different products (0–100 μg/mL). After 72 h, 100 μL of MTT solution (0.5 mg/mL) in 50% of PBS and 50% of the medium was added to each well. Following incubation for 1.5 h, formazan was resuspended in 100 μL of DMSO, and each concentration was tested in triplicate. The cell viability relative to the untreated control cells was determined by measuring the absorbance at 570 nm using an ELISA plate reader (Tecan Sunrise MR20–301, TECAN, Grödig, Austria).

[2] = tested on: NO release in LPS-stimulated RAW 264.7 macrophage cells; assay: Inhibition of nitric oxide production (Griess nitrite assay) in LPS-activated RAW 264.7 macrophages; type: cell-based, murine; conditions: LPS-stimulated RAW 264.7, 48 h; for NO inhibition: ¾ IC50 concentration; for IC50: Mus musculus, RAW264.7
Protocol: To evaluate the anti-inflammatory activity of the rearranged abietanes (5, 7, 17, and 19) along with their precursor 13, we conducted experiments on RAW 264.7 macrophage cells, a well-known model for screening anti-inflammatory compounds. The macrophages were stimulated with LPS to induce the maximum release of nitric oxide (NO) during the inflammatory response. Subsequently, the different compounds were incubated with the cells at sub-cytotoxic concentrations for 48 h (Figure 9). Next, we determined the concentration of nitrites in the culture medium, which was proportional to the amount of NO release.
Nitrite production was analyzed using the Griess reaction method. The concentration of nitrite was used as an indication of nitric oxide (NO) production. RAW 264.7 cells were seeded at 6 × 10^4 cells/well in 24-well cell culture plates, supplemented with 10 μg/mL of lipopolysaccharide (LPS). […] The Griess reaction was conducted by mixing 150 μL of supernatant test samples or sodium nitrite standard (0–120 μM) with 25 μL of Griess reagent A (0.1% n-(1-naphthyl) ethylenediamine dihydrochloride) and 25 μL of Griess reagent B (1% sulfanilamide in 5% of phosphoric acid) in a 96-well plate. The mixture was incubated at room temperature for 15 min, after which the absorbance was measured at 540 nm using an ELISA plate reader (Tecan Sunrise MR20–301, TECAN, Grödig, Austria). To determine the concentration of nitrite in each sample supernatant, the absorbance was referenced to the nitrite standard curve. To determine the percentage of NO production, the increase between the negative control (untreated cells) and the positive control (cells only with 10 μg/mL of LPS) was assigned 100%.

[3] = tested on: HT29, HepG2 and B16–F10 cell lines; assay: MTT cell viability assay, span over all three tumor cell lines; type: cell-based; conditions: 72 h
Source text: as §1
The human colorectal adenocarcinoma cell line HT29 (ECACC no. 9172201; ATCC no. HTB-38), the human hepatocarcinoma cell line HepG2 (ECACC no. 85011430), the mouse melanoma cells B16–F10 (ATCC no. CRL-6475), and the murine monocyte/macrophage like RAW 264.7 cell line (ATCC no, TIB-71) were obtained from the cell bank of the University of Granada, Spain. […]
The effects of the compounds on the cell viability were established using the MTT method (Sigma, St. Louis, MO, USA). The cytotoxicity of the compounds was assessed by measuring the absorbance of MTT dye staining of metabolically competent cells. […] The cell viability relative to the untreated control cells was determined by measuring the absorbance at 570 nm using an ELISA plate reader (Tecan Sunrise MR20–301, TECAN, Grödig, Austria).

[4] = Homo sapiens, HT-29, 72 h, read-out: IC50

Molecule `CC(C)C1=CC2=C(C(=O)C1=O)C1=CC(=O)CC(C)(C)[C@@]1(C)C=C2` [Compound 5, Pygmaeocin B] has an IC80 ([1]; Homo sapiens, HT-29, 72 h) of 9.73 ± 1.18 µg/mL (≈ 31.3 µM), an IC50 [1, 4] of 6.69 ± 1.18 µg/mL (≈ 21.6 µM) and an NO inhibition [2] of 100%. The IC50 [2] was 0.033 ± 0.0008 µg/mL (≈ 0.106 µM).
With `CC(C)C1=CC2=C(C(=O)C1=O)[C@@]1(C)CCCC(C)(C)[C@@H]1CC2` [Compound 13] the IC50 ([1]; 72 h, listed as Precursor (13)) was 2.67 ± 0.82 µg/mL (≈ 8.89 µM), the IC80 ([1]; Homo sapiens, HT-29, 72 h) was 5.19 ± 0.68 µg/mL (≈ 17.3 µM) and the IC50 [1, 4] was 2.7 ± 0.8 µg/mL (≈ 8.99 µM). The IC50 ([3]; read-out: IC50 values, range in all three cell lines) was 2.67 to 5.58 µg/mL (≈ 8.89 to 18.6 µM), the IC80 ([3]; read-out: IC80 values, range in all three cell lines) was 5.19 to 7.67 µg/mL (≈ 17.3 to 25.5 µM) and the NO inhibition [2] was 99.6%. It also gave an IC50 [2] of 2.03 ± 0.09 µg/mL (≈ 6.76 µM).
